Data taken from article PMC4534190, “Characterization of the MUC1-C Cytoplasmic Domain as a Cancer Target” (PLoS ONE, 2015).
Non-standard residues stand in square brackets, D forms with d. Residues, ends and D or L forms follow the SMILES beside them. No end group written: not given here. *: point of attachment. FITC = O=C1OC2(c3ccc(O)cc3Oc3cc(O)ccc32)c2ccc(NC(=S)*)cc21

Tests used:
GST-MUC1-CD(AQA) = assay: Binding to GST-MUC1-CD(AQA) mutant; settings: CQC motif mutated to AQA; only background fluorescence; data not shown; FITC-labeled peptide, 1 h at 37°C
Description: Binding affinities of FITC-GO-202 and FITC-GO-203 were determined by the saturation binding method. In short, 96-well glutathione- or nickel-coated plates (Thermo Fisher, Waltham, MA) were incubated with 150 μl of PBS buffer containing 21.45 μg/ml of GST-MUC1-CD, GST-MUC1-CD(AQA) or His-MUC1-CD overnight at 4°C followed by washing with 50 mM Tris and 150 mM NaCl containing 0.1% Tween-20 (TBST), and blocking with 0.5% BSA in TBS. The plates were then washed 3 times with TBST. FITC-GO-202 or FITC-GO-203 was added to the wells at 0.19 μM to 25 μM. Nonspecific binding was determined in the presence of GST alone. Plates were incubated for 1 h at 37°C on a shaker followed by washing 3 times with binding buffer. Fluorescence intensity was determined on an Infinite M1000 PRO Tecan Microplate Reader (Tecan, NC) with excitation at 490 nm and emission at 525 nm. GraphPad Prism 4.0 Software (San Diego, CA) was used to calculate the equilibrium dissociation constant (Kd) by a non-linear regression method.
(§1) Vectors expressing GST-MUC1-CD, GST-MUC1-CD(AQA) and His-MUC1-CD, GFP-MUC1-CD and FLAG-MUC1-CD have been described. His-tagged MUC1-CD (rat and dog) were cloned in pET28a vector (Clontech, Mountain View, CA) and expressed in E. coli BL21(DE3).

endogenous MUC1-C [1] = assay: Binding to endogenous MUC1-C in ZR-75-1 cells, coimmunoprecipitation; format: cell-based, human; settings: 5 μM FITC-GO-203 overnight, non-reducing
Description: (§2) Human ZR-75-1 breast cancer (ATTC) and H1975 lung cancer (ATTC) cell lines were grown in RPMI 1640 supplemented with 10% heat-inactivated fetal bovine serum (HI-FBS), 100 units/ml penicillin, and 100 μg/ml streptomycin. 293T cells were grown in DMEM with 10% HI-FBS, antibiotics, and 2 mmol/L L-glutamine. Cells were treated with FITC conjugated-GO-202 (FITC-GO-202), FITC-GO-203 or unconjugated GO-203 synthesized by the MIT Biopolymer Laboratory (Cambridge, MA) and AnaSpec, Inc (San Jose, CA). The p3XFLAG-CMV-10 (Sigma, St. Louis, MO), pEGFP-C1 and pDsRed-Monomer-N1 (Clontech, Mountain View, CA) vectors were used for transfection of rat and dog MUC1-CD and full length human MUC1 in 293T cells in the presence of Lipofectamine 2000 (Life Technologies, Grand Island, NY).
(§3) Cell lysates were prepared as described. Soluble proteins were immunoprecipitated with anti-FLAG (Sigma, St. Louis, MO), anti-MUC1-C (Thermo Fisher Scientific, Waltham, MA) or a control IgG. The precipitates and lysates not subjected to immunoprecipitation were immunoblotted with anti-MUC1-C, anti-GFP (Abcam, Cambridge, MA), anti-FLAG and anti-FITC (Life Technologies, Grand Island, NY). Reactivity was detected with horseradish peroxidase-conjugated secondary antibodies and chemiluminescence.

DsRedMN1-MUC1 = assay: Localization in 293T cells expressing DsRedMN1-MUC1, immunofluorescence microscopy; format: cell-based, human; settings: 5 μM FITC-GO-203, 3 h
Description: as §2
(§4) 293T cells were transfected with MUC1-pDsRed-Monomer-N1 in the presence of Lipofectamine 2000 for 48 h. The cells were then incubated with FITC-GO-203 for 3 h and examined using a Nikon-deconvolution wide-field epifluorescence system with a 100x oil immersion objective. Images were captured using NIS-element software (Nikon) and analyzed by ImageJ software.

endogenous MUC1-C [2] = assay: Binding to endogenous MUC1-C in H1975 cells, coimmunoprecipitation; format: cell-based, human; settings: 5 μM FITC-GO-203 overnight, non-reducing
Description: as §2, §3

293T cells = assay: Localization in untransfected 293T cells, immunofluorescence microscopy; format: cell-based; settings: FITC-GO-203 alone, 5 μM, 3 h
Description: as §2, §4

[3] = tested on: dog GFP-MUC1-CD and FLAG-MUC1-CD; assay: MUC1-CD homodimerization in 293T cells, dog, coimmunoprecipitation; format: cell-based; settings: 5 μM each day for 3 days, anti-FLAG precipitation
Description: as §2, §3

human His-MUC1-CD = assay: In vitro dimerization of human His-MUC1-CD; format: biochemical; settings: CP-2 or GO-203 150 μM; 1 h at room temperature; non-reducing gel, anti-MUC1-C immunoblot
Description: as §1
(§5) Purified His-MUC1-CD was incubated in PBS or increasing amounts of GO-203 for 1 h at room temperature as described. Proteins were then separated in non-reducing polyacrylamide gels and analyzed by immunoblotting.

[4] = tested on: human GFP-MUC1-CD and FLAG-MUC1-CD; assay: MUC1-CD homodimerization in 293T cells, human, coimmunoprecipitation; format: cell-based; settings: 5 μM each day for 3 days, anti-FLAG precipitation
Description: as §2, §3

[5] = tested on: MUC1-C-expressing carcinoma and leukemia cells; set-up: method as in PMID 21421804, PMID 23867470; settings: ref [19],[32]; cited from earlier work
[6] = tested on: rat GFP-MUC1-CD and FLAG-MUC1-CD; assay: MUC1-CD homodimerization in 293T cells, rat, coimmunoprecipitation; format: cell-based; settings: 5 μM each day for 3 days, anti-FLAG precipitation
Description: as §2, §3

His-MUC1-CD (dog) (dog) = assay: non-reducing PAGE with immunoblot; purified His-MUC1-CD in PBS (pH 7.4) or with GO-203 (50, 150, 450 μM) for 1 h at room temperature; immunoblot with anti-MUC1-C
[7] = target: His-MUC1-CD (human) (human); assay: as above
His-MUC1-CD (rat) (rat) = assay: as above
GST-MUC1-CD = target: T1, GST-MUC1-CD (Homo sapiens, UniProt P15941); assay: MS-bridge analysis of disulfide linkage, MALDI-TOF-MS; format: binding; settings: incubation with purified GST-MUC1-CD, tryptic digest, single disulfide bridge at the CQC motif
T1 construct: made in house
T1 sequence (P15941 1182-1255 limits assumed): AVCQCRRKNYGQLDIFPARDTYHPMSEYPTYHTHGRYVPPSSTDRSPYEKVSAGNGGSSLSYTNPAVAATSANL
Description: (§6) Binding experiments with MUC1-CD and GO-203 were performed as described. Complexes were eluted from the glutathione beads, dialyzed and concentrated using amicon ultra centrifugal filters (Millipore, Billerica, MA). The complexes were then subjected to non-reducing electrophoresis and stained with Coomassie Blue. Protein bands were excised and analyzed by MALDI-TOF-MS as described. Briefly, gels were cut into small, uniform pieces; the gel pieces were dehydrated with acetonitrile and then rehydrated in 100 mM ammonium bicarbonate followed by 2 washing and drying cycles with ammonium bicarbonate and acetonitrile, respectively. After complete dehydration, gel pieces were suspended in 12.5 ng/μl trypsin in 50 mM ammonium bicarbonate (50 μl). In-gel digestion was carried out at 37°C for 10–12 h and the samples were acidified with 50 μl of 0.5% TFA. Thirty μl of this mixture was desalted by C-18 containing Zip-Tip (Millipore, Billerica, MA). Trypsin-digested peptides were analyzed by MALDI-TOF-MS (ABI-4800). MALDI-TOF-MS analyses were performed using a Reflector method that was optimized for acquisition for the mass range of 700–3500 amu. Data was collected and analyzed using the data Explorer software package (AB-Sciex, Framingham, MA) and MASCOT (ver.2.0.04, Matrix Science, Boston, MA). MS-bridge analysis was done using Protein Prospector (ver.4.27.2 basic and ver.5.0, UCSF). […]

dog His-MUC1-CD = assay: In vitro dimerization of dog His-MUC1-CD; format: biochemical; settings: GO-203 50, 150 and 450 μM; 1 h at room temperature; non-reducing gel, anti-MUC1-C immunoblot
Description: as §1, §5

rat His-MUC1-CD = assay: In vitro dimerization of rat His-MUC1-CD; format: biochemical; settings: GO-203 50, 150 and 450 μM; 1 h at room temperature; pH 7.4; non-reducing gel, anti-MUC1-C immunoblot
Description: as §1, §5

GST = assay: MS-bridge analysis of disulfide linkage, MALDI-TOF-MS, GST control; format: binding; settings: tryptic digest of GST+GO-203, dimer peak not observed
Description: as §6

GST-MUC1-CD (human) = assay: saturation binding of FITC-peptide to protein on coated plates (fluorescence); GST-MUC1-CD held on glutathione-coated 96-well plates; FITC-peptide 0.19 μM to 25 μM, 1 h at 37°C; nonspecific binding from GST alone; apparent Kd by non-linear regression
[8] = target: His-MUC1-CD (human) (human); assay: saturation binding of FITC-peptide to protein on coated plates (fluorescence); His-MUC1-CD held on nickel-coated 96-well plates; FITC-GO-203 0.19 μM to 25 μM, 1 h at 37°C; apparent Kd by non-linear regression

Molecule: N=C(N)NCCC[C@@H](NC(=O)[C@@H](CCCNC(=N)N)NC(=O)[C@@H](CS)NC(=O)[C@@H](CCC(N)=O)NC(=O)[C@@H](CS)NC(=O)[C@@H](CCCNC(=N)N)NC(=O)[C@@H](CCCNC(=N)N)NC(=O)[C@@H](CCCNC(=N)N)NC(=O)[C@@H](CCCNC(=N)N)NC(=O)[C@@H](CCCNC(=N)N)NC(=O)[C@@H](CCCNC(=N)N)NC(=O)[C@@H](CCCNC(=N)N)NC(=O)[C@@H](CCCNC(=N)N)NC(=O)[C@@H](CCCNC(=N)N)NC(=S)Nc1ccc2c(c1)C(=O)OC21c2ccc(O)cc2Oc2cc(O)ccc21)C(=O)N[C@H](CCCCN)C(=O)N[C@H](CC(N)=O)C(=O)O [FITC-GO-203] ({FITC}-[dR][dR][dR][dR][dR][dR][dR][dR][dR][dC][dQ][dC][dR][dR][dK][dN]-OH; N-terminus and C-terminus assumed)
- interaction with GST-MUC1-CD(AQA) (GST-MUC1-CD(AQA)): no interaction was evident
- complex formation with endogenous MUC1-C (endogenous MUC1-C [1]; ZR-75-1 breast cancer cells, anti-MUC1-C precipitates, anti-FITC immunoblot): forms complexes with MUC1-C
- interaction with MUC1-C monomeric and oligomeric forms (endogenous MUC1-C [1]; ZR-75-1 cells, entire immunoblots): interacts with the different MUC1-C monomeric and oligomeric forms
- co-localization of DsRed (MUC1) and FITC signals (DsRedMN1-MUC1; 293T cells expressing DsRedMN1-MUC1): co-localization of the DSRed and FITC signals (Red+Green→Yellow) was observed along the membrane
- FITC staining in cells expressing MUC1 compared to the MUC1-null setting (DsRedMN1-MUC1; 293T cells): brighter
- interaction with MUC1-C monomeric and oligomeric forms (endogenous MUC1-C [2]; H1975 cells, entire immunoblots): interacts with the different MUC1-C monomeric and oligomeric forms
- association with endogenous MUC1-C (endogenous MUC1-C [2]; H1975 lung cancer cells, anti-MUC1-C precipitates, anti-FITC immunoblot): associates with endogenous MUC1-C
- localization of FITC signals (293T cells): localized along the membrane and in the cytosol

Molecule: AQARRKN [CP-2, control peptide, which includes AQARRKN, reference compound]
- inhibition of dog MUC1-CD homodimerization in cells [3]: no effect
- inhibition of human His-MUC1-CD homodimerization (human His-MUC1-CD): no effect
- inhibition of human MUC1-CD homodimerization in cells [4]: no effect
- inhibition of survival of MUC1-C-expressing carcinoma and leukemia cells [5]: not CP-2, inhibits the survival of MUC1-C-expressing carcinoma and leukemia cells
- inhibition of rat FLAG-MUC1-CD/GFP-MUC1-CD complexes in cells [6]: no apparent effect

Molecule: His-MUC1-CD (dog) (domain or fragment)
- stoichiometry N (His-MUC1-CD (dog) (dog)): 2

Molecule: His-MUC1-CD (human) (domain or fragment)
- stoichiometry N [7]: 2

Molecule: His-MUC1-CD (rat) (domain or fragment)
- stoichiometry N (His-MUC1-CD (rat) (rat)): 2

Molecule: [R]9-CQCRRKN [GO-203, peptide in which the poly-Arg cell-penetrating domain is linked to CQCRRKN (D-amino acids)]
- formation of disulfide bridges with MUC1-CD (GST-MUC1-CD): forms disulfide bridges specifically with MUC1-CD
- inhibition of dog MUC1-CD homodimerization in cells [3]: inhibition of MUC1-CD homodimerization
- inhibition of dog His-MUC1-CD homodimerization (dog His-MUC1-CD): effectively inhibited
- inhibition of human His-MUC1-CD homodimerization (human His-MUC1-CD): effectively inhibited
- inhibition of human MUC1-CD homodimerization in cells [4]: inhibition of MUC1-CD homodimerization
- inhibition of rat His-MUC1-CD homodimerization (rat His-MUC1-CD): decreased homodimerization
- inhibition of survival of MUC1-C-expressing carcinoma and leukemia cells [5]: inhibits the survival of MUC1-C-expressing carcinoma and leukemia cells
- formation of disulfide bridges with GST (GST): not with GST
- inhibition of rat FLAG-MUC1-CD/GFP-MUC1-CD complexes in cells [6]: inhibition of the FLAG-MUC1-CD/GFP-MUC1-CD complexes

Molecule: {FITC}-RRRRRRRRRCQCRRKN (cysteine pairing not given here) [FITC-GO-202]
- Kd (GST-MUC1-CD (human)): 880 nM

Molecule: {FITC}-[dR][dR][dR][dR][dR][dR][dR][dR][dR][dC][dQ][dC][dR][dR][dK][dN] (cysteine pairing not given here) [FITC-GO-203]
- Kd (GST-MUC1-CD (human)): 630 nM
- Kd [8]: 860 nM
